Results as given in patent US20010049117A1, “ANALOGS OF UDP-MURNAC PEPTIDES, ASSAYS, KITS AND RELATED METHODS OF THEIR USE” (priority 1998, published 2001).

System: MraY/MurG enzymes
Assay: Lipid II formation assay (coupled MraY/MurG GlcNAc transferase assay, streptavidin capture)
Type: biochemical, E. coli
Protocol: Bacterial membranes are used as a source of enzymes in the coupled MraY/MurG assay for the formation of Lipid II. Wild-type E. coli and MurG over-expressing constructs have been utilized as the membrane donors. Bacteria are grown in Brain Heart Infusion media supplemented with Casamino Acids (BHI/CAA) at 37° C. with aeration, to log phase (OD600=0.7) and centrifuged at 7000×g. Pellets are washed once with 50× the wet pellet weight of 5 mM Tris-HCl (pH 8.0). Pellets are resuspended at a concentration of 2 gms wet pellet/35 mls 5 mM Tris for French Press disruption. Cells are pressure treated at 20,000 psi for 1 minute in a prechilled pressure cell. The membranes generated are collected by ultracentrifugation at 200,000×g for 1 hour at 4° C. Membrane pellets are resuspended in approximately the same volume as the wet pellet weight. This generally yields a membrane concentration of roughly 5 mg/ml. Aliquots are made, and membranes frozen at −80° C. until analysis.
Reactions for the formation of Lipid II have been optimized in 1.5 ml Eppendorf tubes. […]
To the Eppendorf tubes containing the reaction mixtures, 500 ul of binding buffer (10 mM Tris-HCl (PH 8.0), 150 mM NaCl, 0.2% Triton X-100) is added. […] The resulting beads are resuspended in buffer, mixed with scintillation cocktail, and counted in a scintillation counter to determine the amount of radioactivity associated with the capture event. […]

Row | effect on the coupled GlcNAc transferase assay (formation of Lipid II) (FIG. 4) | Compound | effect on formation of streptavidin-capturable radiolabeled Lipid II (100 ug/ml)
1 | no effect | CC1(C)S[C@@H]2[C@H](NC(=O)[C@H](N)c3ccccc3)C(=O)N2[C@H]1C(=O)O [ampicillin] | –
2 | – | moenomycin | did not affect
